Source: ChEMBL document CHEMBL1201862, “PubChem BioAssay data set” (2004)
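These data come from cells grown in 96-well plates and exposed to compound for 48 hours at five concentrations. GI50 = concentration required for 50% inhibition of growth.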 Calls of active or inactive are those of the source. Cut-off read from the data, not from the text of the source: active = GI50 up to about 1.1 µM and inactive = higher.

Key:
Experiment in all cases: NCI-60 cell line screen, 48 h
[1] = test system: HOP-92
[2] = test system: SF-539
[3] = test system: HL-60
[4] = test system: NCI-H460
[5] = test system: SN12C
[6] = test system: HCC 2998
[7] = test system: OVCAR-8
[8] = test system: 786-0
[9] = test system: SK-OV-3
[10] = test system: SW-620
[11] = test system: HCT-15
[12] = test system: MOLT-4
[13] = test system: SNB-19
[14] = test system: RXF 393
[15] = test system: UACC-62
[16] = test system: KM12
[17] = test system: LOX IMVI
[18] = test system: RPMI-8226

SMILES | GI50 [1] | GI50 [2] | GI50 [3] | GI50 [4] | GI50 [5] | GI50 [6] | GI50 [7] | GI50 [8] | GI50 [9] | GI50 [10] | GI50 [11] [µM] | GI50 [12] | GI50 [13] | GI50 [14] | GI50 [15] | GI50 [16] | GI50 [17] | GI50 [18]
ClCCCC1COc2ccccc2O1 (stereo not given) | 43.6 µM (inactive) | > 100 µM (inactive) | > 100 µM (inactive) | > 100 µM (inactive) | > 100 µM (inactive) | > 100 µM (inactive) | > 100 µM (inactive) | > 100 µM (inactive) | 8.81 µM (inactive) | > 100 µM (inactive) | > 100 | > 100 µM (inactive) | > 100 µM (inactive) | > 100 µM (inactive) | 98.6 µM (inactive) |  |  | 
O=C(CSC(=S)N1CCOCC1)Nc1nc2c(s1)CCCC2 | 23.9 µM (inactive) | > 100 µM (inactive) | 27.7 µM (inactive) | > 100 µM (inactive) | > 100 µM (inactive) | 24.1 µM (inactive) | > 100 µM (inactive) | 90.2 µM (inactive) | > 100 µM (inactive) |  | > 100 | > 100 µM (inactive) |  |  |  | > 100 µM (inactive) | > 100 µM (inactive) | > 100 µM (inactive)
CCOc1ccc(NC(=O)CC2SC(Nc3ccc(Cl)cc3)=NC2=O)cc1 (stereo not given) |  | > 100 µM (inactive) | 24.2 µM (inactive) | > 100 µM (inactive) | > 100 µM (inactive) | > 100 µM (inactive) | 49.7 µM (inactive) | > 100 µM (inactive) | > 100 µM (inactive) | 98.9 µM (inactive) | 95.3 | 29.4 µM (inactive) | > 100 µM (inactive) | 40.8 µM (inactive) | > 100 µM (inactive) | > 100 µM (inactive) | > 100 µM (inactive) | 58.6 µM (inactive)
Oc1ccc2c(c1)CC[N+]1=C2CCC2CCCC21 (stereo not given) [QUINDONIUM BROMIDE] | > 100 µM (inactive) | > 100 µM (inactive) |  | > 100 µM (inactive) | > 100 µM (inactive) | > 100 µM (inactive) | > 100 µM (inactive) | > 100 µM (inactive) | > 100 µM (inactive) | > 100 µM (inactive) | > 100 |  | > 100 µM (inactive) | > 100 µM (inactive) | > 100 µM (inactive) |  | > 100 µM (inactive) | 
O=c1ccc2ccc(O)c3c4c(O)ccc5ccc(=O)c(c1c23)c54 |  | 1.69 µM (inactive) | 1.09 µM (active) | 3.56 µM (inactive) | 2.08 µM (inactive) |  | 1.46 µM (inactive) | 2.31 µM (inactive) | 4.02 µM (inactive) | 2.07 µM (inactive) | 1.26 | 2.11 µM (inactive) | 2.18 µM (inactive) | 1.17 µM (inactive) | 0.382 µM (active) | 1.24 µM (inactive) | 1.18 µM (inactive) | 2.9 µM (inactive)
O=C(N/C(=C\c1ccc(Br)cc1)c1nc2ccccc2s1)c1ccccc1 | 38.2 µM (inactive) | 88.9 µM (inactive) |  | 85.1 µM (inactive) | > 100 µM (inactive) |  | 89.9 µM (inactive) | > 100 µM (inactive) | > 100 µM (inactive) | > 100 µM (inactive) | 46.1 | 29.9 µM (inactive) | 47 µM (inactive) | 43.4 µM (inactive) | 71 µM (inactive) | > 100 µM (inactive) | 65.2 µM (inactive) | 32.5 µM (inactive)
C=C1C(=O)OC2(C)C3CCC(C3)C12 (stereo not given) | 29 µM (inactive) | 98.2 µM (inactive) | 19.9 µM (inactive) | 33 µM (inactive) | 57.8 µM (inactive) | 66.1 µM (inactive) | 36 µM (inactive) | 47.9 µM (inactive) | > 100 µM (inactive) | 47.2 µM (inactive) | 60.7 | 34 µM (inactive) | > 100 µM (inactive) |  | 63.8 µM (inactive) | 43.4 µM (inactive) | 80.2 µM (inactive) | 34.4 µM (inactive)
O=C(OCC(Cl)(Cl)Cl)N1CC[C@H](C2CCCCC2)C1 |  |  |  | 18.6 µM (inactive) | 37.2 µM (inactive) | 18.5 µM (inactive) |  | 16.7 µM (inactive) | 15.6 µM (inactive) |  | 18.2 | 28.1 µM (inactive) | 16.5 µM (inactive) | 19.5 µM (inactive) | 22.1 µM (inactive) | 17.3 µM (inactive) | 19.5 µM (inactive) | 
O=c1/c(=C/c2ccc3c(c2)OCO3)sc2nnc(Cc3ccccc3)n12 | > 100 µM (inactive) | > 100 µM (inactive) | > 100 µM (inactive) | > 100 µM (inactive) | > 100 µM (inactive) | 81.8 µM (inactive) | > 100 µM (inactive) | > 100 µM (inactive) | > 100 µM (inactive) | > 100 µM (inactive) | > 100 | > 100 µM (inactive) | > 100 µM (inactive) | > 100 µM (inactive) | > 100 µM (inactive) | > 100 µM (inactive) | > 100 µM (inactive) | 34.5 µM (inactive)
CCOc1ccc(N2C(=O)C3c4[nH]c5ccccc5c4C4CCC(C(C)(C)C)CC4C3C2=O)cc1 (stereo not given) | > 100 µM (inactive) | > 100 µM (inactive) | 44.9 µM (inactive) |  | 51.3 µM (inactive) | 28.8 µM (inactive) | 97.1 µM (inactive) | 50.6 µM (inactive) | > 100 µM (inactive) | > 100 µM (inactive) | > 100 | > 100 µM (inactive) | > 100 µM (inactive) | 21.8 µM (inactive) | > 100 µM (inactive) |  |  | > 100 µM (inactive)
O=C(N/N=C1/C(=O)N(c2ccc(Cl)cc2Cl)C(=O)C(=O)C1c1nc2ccccc2o1)c1ccccc1O (stereo not given) | 30.5 µM (inactive) | 29.4 µM (inactive) |  | 44.8 µM (inactive) | 33.8 µM (inactive) |  | 60.4 µM (inactive) | 51.6 µM (inactive) | 33 µM (inactive) | 47.9 µM (inactive) | 37.8 | 34.7 µM (inactive) | 49.7 µM (inactive) |  | 20.4 µM (inactive) | 42.4 µM (inactive) |  | 43.4 µM (inactive)
CCCCCCCCCCCCC(SCCNC(=O)CCNC(=O)C(O)C(C)(C)COP(=O)(O)OP(=O)(O)OCC1OC(n2cnc3c(N)ncnc32)C(O)C1OP(=O)(O)O)C(=O)NCC(N)=O (stereo not given) | 38.3 µM (inactive) | 52.2 µM (inactive) | 72.9 µM (inactive) | 91.6 µM (inactive) | 40.1 µM (inactive) | > 100 µM (inactive) | > 100 µM (inactive) | > 100 µM (inactive) | 18.6 µM (inactive) | > 100 µM (inactive) | > 100 |  | 66.7 µM (inactive) | 36 µM (inactive) | > 100 µM (inactive) | > 100 µM (inactive) | > 100 µM (inactive) | 
COc1cc(CNC2=NCCC2)cc(OC)c1OC | > 100 µM (inactive) | > 100 µM (inactive) | > 100 µM (inactive) | > 100 µM (inactive) | > 100 µM (inactive) | > 100 µM (inactive) | > 100 µM (inactive) | > 100 µM (inactive) | > 100 µM (inactive) | > 100 µM (inactive) | > 100 | > 100 µM (inactive) | > 100 µM (inactive) | > 100 µM (inactive) | > 100 µM (inactive) | > 10 µM (inactive) |  | 
